Experimental findings from patent US20110294155A1, “MODULATION OF AN ION CHANNEL OR RECEPTOR” (Howard Florey Institute, priority 2008, published 2011) are described below.

Molecules are shown by their SMILES. Entries after “also recorded” stand apart in the source; their conditions may differ.

In the assay the target is skeletal muscle Nav1.4 sodium channels (Homo sapiens, UniProt P35499). The assay is described as follows: Dynamic clamp whole cell assay of action potential firing at HEK cells expressing Nav1.4 sodium channels. It is filed as cell-based.
skeletal muscle Nav1.4 sodium channels, sequence (P35499 whole entry): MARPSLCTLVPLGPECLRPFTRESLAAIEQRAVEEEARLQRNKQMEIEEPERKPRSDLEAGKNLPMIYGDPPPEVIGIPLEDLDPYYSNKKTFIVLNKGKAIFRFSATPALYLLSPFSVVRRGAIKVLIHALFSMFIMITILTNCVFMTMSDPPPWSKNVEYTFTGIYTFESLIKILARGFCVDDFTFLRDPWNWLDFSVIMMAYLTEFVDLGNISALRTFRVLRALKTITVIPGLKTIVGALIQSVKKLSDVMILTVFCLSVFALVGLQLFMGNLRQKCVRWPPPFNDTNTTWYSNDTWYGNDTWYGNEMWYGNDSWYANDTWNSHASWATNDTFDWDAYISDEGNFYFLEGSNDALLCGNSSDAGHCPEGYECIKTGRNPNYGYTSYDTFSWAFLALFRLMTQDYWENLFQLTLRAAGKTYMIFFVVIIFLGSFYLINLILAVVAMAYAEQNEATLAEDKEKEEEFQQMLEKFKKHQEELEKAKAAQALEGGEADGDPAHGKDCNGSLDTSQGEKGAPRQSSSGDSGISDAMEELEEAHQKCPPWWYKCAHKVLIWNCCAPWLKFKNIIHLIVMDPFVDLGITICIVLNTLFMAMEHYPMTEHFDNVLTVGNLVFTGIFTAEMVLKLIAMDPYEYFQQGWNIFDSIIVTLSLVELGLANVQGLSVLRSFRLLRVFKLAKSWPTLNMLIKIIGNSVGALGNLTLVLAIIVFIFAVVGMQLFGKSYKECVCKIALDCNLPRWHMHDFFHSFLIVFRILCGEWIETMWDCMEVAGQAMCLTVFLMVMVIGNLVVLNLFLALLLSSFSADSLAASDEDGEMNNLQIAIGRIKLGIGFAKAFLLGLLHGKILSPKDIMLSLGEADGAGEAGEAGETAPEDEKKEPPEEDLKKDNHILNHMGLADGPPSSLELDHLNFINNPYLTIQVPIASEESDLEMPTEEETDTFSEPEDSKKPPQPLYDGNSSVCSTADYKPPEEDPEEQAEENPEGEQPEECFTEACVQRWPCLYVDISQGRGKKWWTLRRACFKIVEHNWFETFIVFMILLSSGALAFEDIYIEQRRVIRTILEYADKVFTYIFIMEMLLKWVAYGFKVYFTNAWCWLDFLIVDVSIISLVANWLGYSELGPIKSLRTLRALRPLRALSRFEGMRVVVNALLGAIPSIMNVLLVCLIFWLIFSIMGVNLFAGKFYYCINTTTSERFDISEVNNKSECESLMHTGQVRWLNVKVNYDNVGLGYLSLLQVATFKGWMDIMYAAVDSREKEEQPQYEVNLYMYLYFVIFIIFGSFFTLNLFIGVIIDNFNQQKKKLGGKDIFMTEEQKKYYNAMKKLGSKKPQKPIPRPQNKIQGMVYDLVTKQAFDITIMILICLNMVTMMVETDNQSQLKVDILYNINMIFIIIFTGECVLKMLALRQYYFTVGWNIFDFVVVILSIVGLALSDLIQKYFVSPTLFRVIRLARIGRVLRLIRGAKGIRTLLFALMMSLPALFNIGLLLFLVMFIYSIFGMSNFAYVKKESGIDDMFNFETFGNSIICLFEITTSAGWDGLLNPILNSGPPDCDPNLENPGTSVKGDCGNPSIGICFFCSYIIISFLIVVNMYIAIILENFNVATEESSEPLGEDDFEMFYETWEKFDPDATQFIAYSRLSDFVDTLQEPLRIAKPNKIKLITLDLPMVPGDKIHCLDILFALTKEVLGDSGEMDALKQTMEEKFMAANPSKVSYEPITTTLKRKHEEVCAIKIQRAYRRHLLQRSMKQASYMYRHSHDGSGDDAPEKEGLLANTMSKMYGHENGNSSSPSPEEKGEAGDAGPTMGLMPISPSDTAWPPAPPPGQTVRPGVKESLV

Description: Twenty-four hours prior to experimentation, cells were dissociated using Versene (EDTA) and plated at 10-12% confluency onto coverslips. The following day the coverslips were placed into the recording chamber and held at 22-25° C. for the duration of the experiments.
Borosilicate glass pipettes (WPI) were used for the whole cell assay. These pipettes were filled with an intracellular solution containing (mM): 10 NaF, 110 CsF, 20 TEA.Cl, 2 ethylene glycol tetraacetic acid and 10 HEPES, with pH adjusted to 7.4 using CsOH and osmolarity adjusted to 310 mosmol/L with sucrose.
The bath solution contained in (mM): 141 NaCl, 4 KCl, 1.0 MgCl2, 1.8 CaCl2, 10 HEPES buffer, and 4 tetraethylammonium (TEA).Cl, with pH adjusted to 7.4 with NaOH and osmolarity adjusted to 310 mosmol/L with sucrose. Bath temperature was controlled using a Warner Instruments (Hamden, Conn.) controller (TC-344B) with inline solution and bath heating.
Electrophysiological recordings were made 10 minutes after establishing whole cell recording. Recordings were made on an EPC-9 patch clamp amplifier (Heka Instruments, Lambrecht, Germany) filtered at 14.4 kHz with >80% series resistance compensation and sampled at 50 kHz. The current monitor output from the EPC-9 was fed into the analogue input channel of a data acquisition card.
The model runs in polling mode using the ode5 fixed time step solver with a step size of 50 μS.
The dynamic clamp system was configured to account for leak conductance, and to also simulate the function of potassium channels, which were not present in the HEK cell.
Following attainment of a whole cell clamp in the HEK cell, a period of 10 minutes was allowed for diffusion of the pipette solution into the intracellular volume of the cell. During this period cells were held at −85 mV.
Control was transferred to the Simulink system and a range of current injections were trialled to achieve a steady state action potential firing of 50-100 Hz (FIG. 8). This firing was stable and continued as long as a stimulating current injection was maintained. […]

Consider `NC(=O)N1c2ccccc2C=Cc2ccccc21` [carbamazepine], for which, for the setting “50 μM in bath solution perfused onto HEK cells expressing Nav1.4, steady state firing of 50-100 Hz before compound”, the “action potential firing rate” value was “decreased the action potential firing rate; also recorded: decrease in action potential firing rate”. Besides, the “number of action potentials elicited by a stimulating current step” value (continued presence of 50 μM, HEK cells expressing Nav1.4, no further firing would occur) is given as 2-3.
